Measured values published in US6670446B1, “N1 modified glycopeptides” (Eli Lilly and Company, priority 1998, dated 2003).

Assays:
Assay type in all cases: cell-based
[1] = tested on: Resistant Enterococcus faecium and faecalis; assay: MIC, standard broth micro-dilution assay, Resistant; conditions: geometric mean of 4-6 isolates
Protocol: (§1) The antibacterial efficacy of the present compounds is illustrated by Table III. The minimal inhibitory concentrations (MICs) were determined using a standard broth micro-dilution assay.

[2] = tested on: Sensitive Enterococcus faecium and faecalis; assay: MIC, standard broth micro-dilution assay, Sensitive; conditions: geometric mean of 4-6 isolates
Protocol: as §1

[3] = tested on: Staphylococcus aureus 446; assay: MIC, standard broth micro-dilution assay, SA 446
Protocol: as §1

[4] = tested on: Staphylococcus aureus 489; assay: MIC, standard broth micro-dilution assay, SA 489
Protocol: as §1

[5] = tested on: Staphylococcus aureus 447; assay: MIC, standard broth micro-dilution assay, SA 447
Protocol: as §1

[6] = tested on: Staphylococcus aureus X400; assay: MIC, standard broth micro-dilution assay, SA X400
Protocol: as §1

[7] = tested on: Staphylococcus aureus X778; assay: MIC, standard broth micro-dilution assay, SA X778
Protocol: as §1

[8] = tested on: Staphylococcus aureus 491; assay: MIC, standard broth micro-dilution assay, SA 491
Protocol: as §1

[9] = tested on: Staphylococcus aureus S13E
Protocol: as §1

[10] = tested on: Staphylococcus aureus SA1199; assay: MIC, standard broth micro-dilution assay, SA 1199
Protocol: as §1

[11] = tested on: Staphylococcus aureus SA1199A; assay: MIC, standard broth micro-dilution assay, SA 1199A
Protocol: as §1

[12] = tested on: Staphylococcus haemolyticus 105; assay: MIC, standard broth micro-dilution assay, SH 105
Protocol: as §1

[13] = tested on: Staphylococcus haemolyticus 415; assay: MIC, standard broth micro-dilution assay, SH 415
Protocol: as §1

[14] = tested on: Staphylococcus epidermidis 270; assay: MIC, standard broth micro-dilution assay, SE 270
Protocol: as §1

[15] = tested on: Enterococcus faecium 180; assay: MIC, standard broth micro-dilution assay, EF 180
Protocol: as §1

[16] = tested on: Enterococcus faecium 180-1; assay: MIC, standard broth micro-dilution assay, EF 180-1
Protocol: as §1

[17] = tested on: Enterococcus faecalis 2041; assay: MIC, standard broth micro-dilution assay, EF 2041
Protocol: as §1

[18] = tested on: Enterococcus faecalis 276; assay: MIC, standard broth micro-dilution assay, EF 276
Protocol: as §1

[19] = tested on: Enterococcus gallinarum 245; assay: MIC, standard broth micro-dilution assay, EG 245
Protocol: as §1

[20] = tested on: Haemophilus influenzae RD; assay: MIC, standard broth micro-dilution assay, HFRD
Protocol: as §1

[21] = tested on: Escherichia coli EC14; assay: MIC, standard broth micro-dilution assay, EC 14
Protocol: as §1

Row | Structure (SMILES) | minimal inhibitory concentration (MIC), Resistant [1] | minimal inhibitory concentration (MIC), Sensitive [2] | minimal inhibitory concentration (MIC), SA 446 [3] | minimal inhibitory concentration (MIC), SA 489 [4] | minimal inhibitory concentration (MIC), SA 447 [5] | minimal inhibitory concentration (MIC), SA X400 [6] | minimal inhibitory concentration (MIC), SA X778 [7] | minimal inhibitory concentration (MIC), SA 491 [8] | minimal inhibitory concentration (MIC), SA S13E [9] | minimal inhibitory concentration (MIC), SA 1199 [10] | minimal inhibitory concentration (MIC), SA 1199A [11] | minimal inhibitory concentration (MIC), SH 105 [12] | minimal inhibitory concentration (MIC), SH 415 [13] | minimal inhibitory concentration (MIC), SE 270 [14] | minimal inhibitory concentration (MIC), EF 180 [15] | minimal inhibitory concentration (MIC), EF 180-1 [16] | minimal inhibitory concentration (MIC), EF 2041 [17] | minimal inhibitory concentration (MIC), EF 276 [18] | minimal inhibitory concentration (MIC), EG 245 [19] | minimal inhibitory concentration (MIC), HFRD [20] | also measured
1 | CC1OC(OC2c3ccc(c(Cl)c3)Oc3cc4cc(c3OC3OC(CO)C(O)C(O)C3OC3CC(C)(NCc5ccc(-c6ccccc6)cc5)C(O)C(C)O3)Oc3ccc(cc3Cl)C(O)C(NC(=O)C(CCCCNC(=O)OC(C)(C)C)NC(=O)OC(C)(C)C)C(=O)NC(CC(N)=O)C(=O)NC4C(=O)NC3C(=O)NC2C(=O)NC(C(=O)O)c2cc(O)cc(O)c2-c2cc3ccc2O)CC(C)(N)C1O [Example 30, N^1-(N,N′-DIBOC-L-lysine) derivative of N^DISACC-(p-phenylbenzyl)desleucylA82846B] | 38 | 2.3 | 8 | 1 | 2 | 2 | 1 | 2 | 2 | 2 | 1 | 2 | 2 | 1 | 8 | 0.5 | 1 | 2 | 2 | >64 | minimal inhibitory concentration (MIC), EC 14 [21]: >64
2 | CC1OC(OC2C(Oc3c4cc5cc3Oc3ccc(cc3Cl)[C@@H](O)[C@@H](NC(=O)c3ccc(-c6ccccc6)cc3)C(=O)N[C@@H](CC(N)=O)C(=O)N[C@H]5C(=O)N[C@H]3C(=O)NC(C(=O)N[C@H](C(=O)O)c5cc(O)cc(O)c5-c5cc3ccc5O)[C@H](OC3CC(C)(N)C(O)C(C)O3)c3ccc(c(Cl)c3)O4)OC(CO)C(O)C2O)CC(C)(N)C1O (stereo partly drawn) [Example 1, N^1-(p-phenylbenzoyl)desleucylA82846B] | >128 | 4 | 1 | 0.5 | 0.25 | 0.5 | 0.125 | 0.5 | 0.25 | 0.125 | ≦.06 | 2 | 4 | 0.5 | 64 | 0.125 | 0.125 | 0.125 | 2 | no growth | minimal inhibitory concentration (MIC), EC 14 [21]: >64
3 | CC1OC(OC2C(Oc3c4cc5cc3Oc3ccc(cc3Cl)[C@@H](O)[C@@H](NC(=O)[C@@H](Cc3ccc(Cl)cc3)NC(=O)OC(C)(C)C)C(=O)N[C@@H](CC(N)=O)C(=O)N[C@H]5C(=O)N[C@H]3C(=O)NC(C(=O)N[C@H](C(=O)O)c5cc(O)cc(O)c5-c5cc3ccc5O)[C@H](OC3CC(C)(N)C(O)C(C)O3)c3ccc(c(Cl)c3)O4)OC(CO)C(O)C2O)CC(C)(N)C1O (stereo partly drawn) [Example 20, N^1-[N-BOC-D-3-(p-chlorophenyl)alanine] derivative of desleucylA82846B] | >128 | 2 | 0.5 | ≦.06 | 0.25 | ≦.06 | 0.25 | ≦.06 | 0.125 | 0.125 | no growth | 8 | 16 | 0.125 | 16 | 0.25 | ≦.06 | 0.125 | 0.5 | 8 | minimal inhibitory concentration (MIC), EC 14 [21]: >64
